Laboratory results taken from PMC4992173, “Divergent synthesis and identification of the cellular targets of deoxyelephantopins” (Nature Communications, 2016).

Target: T1, endogenous PPARγ (Homo sapiens, UniProt P37231)
T1 construct: endogenous PPARγ was successfully enriched and quantified from the DMSO-treated Caco-2 cells; endogenous in cells; host or cells: Caco-2
Experiment: Targeted competitive proteomics of endogenous PPARγ in Caco-2 cells
Assay type: cell-based
Conditions: Caco-2 cells treated in situ with 20 μM, lysate then 10 μM 24c; n=6
Description: On the basis of the reported interaction between deoxyelephantopin and PPARγ and because MCF7 cells are known to express very low levels of this protein, we investigated in a separate experiment whether deoxyelephantopin indeed covalently binds PPARγ. The recombinant transcription factor was spiked into MCF7 lysates to 30 nM final concentration and successfully enriched by the methacrylate ester probe 24c, as evidenced from LC–MS/MS-based label-free quantification (LFQ)[48]. […] Gratifyingly, endogenous PPARγ was successfully enriched and quantified from the DMSO-treated Caco-2 cells, whereas DEP pretreatment efficiently competed PPARγ enrichment (>95%; Fig. 7a). […]
Figure 7 Identification of PPARγ as target of deoxyelephantopin and screening of DEP derivatives as PPARγ antagonists. (a) Quantification of endogenous PPARγ enriched from Caco-2 cells using 10 μM 24c following in situ treatment with DEP (20 μM) or DMSO (normalized LFQ values±s.d. are shown; n=6). […] Quantification of fluorescence intensity in the competitive screening for PPARγ antagonists (bottom; values±s.d. are shown; n=3).
Samples were analyzed by LC-MS/MS (see below) and the MS data was processed with […]
Samples were analyzed by LC-MS/MS (see below) using inclusion lists containing m/z and charge of the expected peptides of indicated proteins (see Figure 6c γ . was processed with MaxQuant (see below). […]

T1 sequence (P37231 29-505 limits assumed): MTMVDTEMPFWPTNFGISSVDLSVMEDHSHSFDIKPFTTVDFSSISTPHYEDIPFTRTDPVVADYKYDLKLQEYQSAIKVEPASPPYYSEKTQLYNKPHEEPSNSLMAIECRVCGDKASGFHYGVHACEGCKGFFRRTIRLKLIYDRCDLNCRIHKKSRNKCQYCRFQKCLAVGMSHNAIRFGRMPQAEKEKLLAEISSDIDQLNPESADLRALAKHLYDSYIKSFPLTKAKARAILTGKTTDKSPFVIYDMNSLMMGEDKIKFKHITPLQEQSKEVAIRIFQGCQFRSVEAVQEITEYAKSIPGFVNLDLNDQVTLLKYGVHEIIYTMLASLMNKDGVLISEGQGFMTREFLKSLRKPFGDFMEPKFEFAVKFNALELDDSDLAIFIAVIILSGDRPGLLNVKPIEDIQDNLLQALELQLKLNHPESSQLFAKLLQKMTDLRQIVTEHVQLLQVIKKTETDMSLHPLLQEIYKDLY

SMILES: C=C(C)C(=O)O[C@H]1CC2=C[C@@H](C/C(C)=C/[C@H]3OC(=O)C(=C)[C@H]13)OC2=O [deoxyelephantopin]
- competition of endogenous PPARγ enrichment by 24c: > 95%
